Assays:
Format in all cases: physicochemical
[1] = pH in 17 grains per gallon (gpg) water, Example 5; settings: Dose 625 ppm
Description: The pH of the urea/citric acid complex was also compared to those of citric acid and monosodium citrate.

[2] = Swelling of tablets made with various acids as the acid filler, Example 2
[3] = Tablet dimensional change at 40° C. and 90% humidity, Example 6; settings: acid filler of the formulation
Protocol: A formulation using urea/citric acid complex as the acid filler were compared to those using urea or a mixture of urea and citric acid. In this Example, tablets were made according to the formulations in Table 8, then placed at 40° C. and 90% humidity. Their dimensional changes were measured during two-weeks period of time.

[4] = Block stability in a dispenser (swelling after 1 minute soak in water), Example 7; settings: soaked in 1 inch of water at 43.3° C. (110° F.) for 1 minute; up to 18 hours
Protocol: Various blocks made from different formulations were screened for their block stability in a dispenser. During the experiments, the blocks were soaked in 1 inch of water at 43.3° C. (110° F.) for 1 minute, then measured for their swelling as a function of time.

SMILES	pH in 17 gpg Water [1]	Swelling of the tablet using the acid as the filler ([2]; 4 Week at 40° C.)	further results
O=C(O)CC(O)(CC(=O)O)C(=O)O [Citric Acid]	4.45	–	–
CC(O)C(=O)O (centres unmarked) [Lactic Acid]	–	Weeping	State of the tablet using the acid as the filler ([2]; at 50° C.): melted
O=C(O)/C=C\C(=O)O [Maleic Acid]	–	Melted	–
O=C(O)CC(O)C(=O)O (centres unmarked) [Malic Acid]	–	~5%	–
O=C(O)CC(=O)O [Malonic Acid]	–	Weeping	–
O=C([O-])CC(O)(CC(=O)O)C(=O)O.[Na+] [Monosodium citrate]	5.6	–	–
NC(N)=O.O=C(O)CC(O)(CC(=O)O)C(=O)O [Urea-Citrate, urea-citric acid complex]	4.8	–	Swelling of the tablet using the acid as the filler ([2]; at 2 weeks, 40° C.): 0.5% at 2 weeks; Storage stability as measured by percentage swelling (in words) [3]: best storage stability; Swelling of the block after soak (in words) [4]: swelling is minimal
